In brackets after ≈: the same amount, converted by molar mass. Activity calls are given as the source filed them. No cut-off for these calls is given here.
Columns and labels:
[1] = Retention time of compound by HPLC analysis; assay type: physicochemical
[2] = Stability of compound in PBS buffer incubated for 8 to 24 hrs by HPLC analysis; assay type: physicochemical; conditions: time 8-24 hrs
[3] = Stability in cell culture medium containing fetal bovine serum assessed as compound remaining at 200 uM at 37 degreeC measured after 72 hrs by RP-HPLC analysis; assay type: ADME, cell-free; conditions: cattle, read-out: Stability
K562-IMA[r] = test: Cytotoxicity against human Imatinib-resistant K562 cells assessed as effect on metabolic activity at 10 uM incubated for 72 hrs by MTT assay; assay type: functional, cell-based
[4] = Cytotoxicity against human HS5 cells assessed as effect on metabolic activity at 10 uM incubated for 72 hrs by MTT assay; assay type: toxicity, cell-based; conditions: hs5, 72 h
COS-7 = test: Cytotoxicity against african green monkey COS-7 cells assessed as effect on metabolic activity at 10 uM incubated for 72 hrs by MTT assay; assay type: toxicity, cell-based; conditions: chlorocebus aethiops, cos-7, 72 h
K562 [5] = test: Re-sensitization of human K562 cells to imatinib assessed as reduction in metabolic activity at 5 uM in presence of 1 uM imatinib by EZ4U assay; assay type: functional, cell-based
K562 [6] = test: Re-sensitization of human K562 cells to imatinib assessed as reduction in metabolic activity by measuring maximal sensitizing concentration in presence of imatinib by EZ4U assay; assay type: functional, cell-based; conditions: read-out: EC50
Liver carboxylesterase [7] = target: T1, Liver carboxylesterase (Sus scrofa, UniProt Q29550); test: Stability of the compound assessed as porcine liver esterase-mediated hydrolysis at 800 uM measured after 180 mins by HPLC analysis; assay type: ADME; conditions: pig, isolated protein, 3 h
T1 sequence (Q29550 whole entry): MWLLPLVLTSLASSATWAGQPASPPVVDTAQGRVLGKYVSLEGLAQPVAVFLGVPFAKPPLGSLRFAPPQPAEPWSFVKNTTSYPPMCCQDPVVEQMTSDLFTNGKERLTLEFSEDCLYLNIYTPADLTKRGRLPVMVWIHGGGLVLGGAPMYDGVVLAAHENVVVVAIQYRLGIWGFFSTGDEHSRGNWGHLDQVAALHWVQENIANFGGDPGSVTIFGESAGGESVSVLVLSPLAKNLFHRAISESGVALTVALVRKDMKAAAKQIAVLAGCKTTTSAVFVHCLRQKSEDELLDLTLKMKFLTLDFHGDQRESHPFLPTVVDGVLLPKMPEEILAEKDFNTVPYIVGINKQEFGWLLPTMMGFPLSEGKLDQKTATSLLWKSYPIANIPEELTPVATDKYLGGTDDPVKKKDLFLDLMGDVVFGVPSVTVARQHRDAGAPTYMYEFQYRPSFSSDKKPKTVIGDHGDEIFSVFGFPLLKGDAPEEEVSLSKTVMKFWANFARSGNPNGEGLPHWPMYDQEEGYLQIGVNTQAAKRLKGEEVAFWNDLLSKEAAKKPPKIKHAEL

[8] = Stability of the compound assessed as Pseudomonas aeruginosa Amidase-mediated hydrolysis at 800 uM measured after 6 hrs by HPLC analysis; assay type: ADME; conditions: isolated protein
[9] = Drug uptake in human Imatinib-resistant K562 cells assessed as increase in fluorescent intensity measured after 3 hrs by coomassie brilliant blue staining based analysis; assay type: ADME, cell-based; conditions: k562-ima[r]
[10] = Drug uptake in human Imatinib-resistant K562 cells assessed as increase in fluorescent intensity measured after 1 hr by coomassie brilliant blue staining based analysis; assay type: ADME, cell-based; conditions: k562-ima[r]
[11] = Drug uptake in human Imatinib-resistant K562 cells assessed as increase in fluorescent intensity measured at 24 hrs by coomassie brilliant blue staining based analysis; assay type: ADME, cell-based; conditions: k562-ima[r]
[12] = Solubility of compound in DMSO measured for 30 mins by UV-spectroscopy analysis; assay type: physicochemical
Liver carboxylesterase [13] = target: T1, Liver carboxylesterase; test: Stability of the compound assessed as porcine liver esterase-mediated hydrolysis by measuring half life at 800 uM measured after 180 mins by HPLC analysis; assay type: ADME; conditions: pig
K562 [14] = test: Re-sensitization of human K562 cells to imatinib assessed as reduction in metabolic activity at 5 uM in presence of imatinib by EZ4U assay; assay type: functional, cell-based
[15] = Drug uptake in human Imatinib-resistant K562 cells assessed as increase in fluorescent intensity measured after 24 hrs by coomassie brilliant blue staining based analysis; assay type: ADME, cell-based; conditions: k562-ima[r]
[16] = Stability of the compound assessed as Pseudomonas aeruginosa Amidase-mediated hydrolysis at 800 uM measured after 24 hrs by HPLC analysis; assay type: ADME; conditions: isolated protein
amidase = test: Stability of the compound assessed as Pseudomonas aeruginosa Amidase-mediated hydrolysis by measuring half life at 800 uM measured after 24 hrs by HPLC analysis; assay type: ADME
[17] = Drug uptake in human Imatinib-resistant K562 cells assessed as increase in fluorescent intensity measured after 1 to 24 hrs by coomassie brilliant blue staining based analysis; assay type: ADME, cell-based; conditions: k562-ima[r], time 1-24 hrs
K562 [18] = test: Re-sensitization of human K562 cells to imatinib assessed as reduction in metabolic activity at 10 uM in presence of imatinib by EZ4U assay; assay type: functional, cell-based

| Retention_time [1] | Stability [2] | remaining at 72 h, 200 µM [3] | Stability (Liver carboxylesterase [7]) | half-life at 800 µM (Liver carboxylesterase [13]) | SMILES | Activity (K562-IMA[r]) | Activity [4] | Activity (COS-7) | Activity (K562 [5]) | maximal sensitizing concentration (K562 [6]) | other results |
| --- | --- | --- | --- | --- | --- | --- | --- | --- | --- | --- | --- |
| 13.4 min | Stable | 97.2% | – | – | CCCc1nc2ccccc2n1Cc1ccc(-c2ccccc2C(=O)OC(C)(C)C)cc1 | inactive | Non-toxic | Non-toxic | Active | 2900 nM | – |
| 15.3 min | Stable | – | – | – | CCCc1nc2ccccc2n1Cc1ccc(-c2ccccc2C(=O)Oc2ccc(-c3ccccc3)cc2)cc1 | – | – | – | – | – | solubility at 0.5 h [12]: 16 mM (≈ 8.36 mg/mL) |
| < 10.3 min | Stable | 95.1% | Stable | – | CCCc1nc2ccccc2n1Cc1ccc(-c2ccccc2C(=O)NCC)cc1 | inactive | Non-toxic | Non-toxic | Active | 6200 nM | Stability [16]: Stable; half-life at 800 µM (amidase): 65 h |
| < 11.6 min | Stable | 97.1% | Stable | – | CCCCNC(=O)c1ccccc1-c1ccc(Cn2c(CCC)nc3ccccc32)cc1 | inactive | Non-toxic | Non-toxic | Active | 1300 nM | Stability [8]: Stable |
| 13.6 min | Stable | 102% | Stable | – | CCCc1nc2ccccc2n1Cc1ccc(-c2ccccc2C(=O)Nc2ccc(Oc3ccccc3)cc2)cc1 | inactive | Non-toxic | Non-toxic | Active | 1300 nM | Stability [8]: Stable |
| 13.7 min | Stable | 94.8% | – | 4.67 h | CCCc1nc2ccccc2n1Cc1ccc(-c2ccccc2C(=O)Oc2ccccc2)cc1 | inactive | Non-toxic | Non-toxic | Active | 1500 nM | Drug uptake [15]: 15.7 nmol/mg; Drug uptake [9]: 13.1 nmol/mg |
| 15.2 min | Stable | 99.8% | – | 6.17 h | CCCc1nc2ccccc2n1Cc1ccc(-c2ccccc2C(=O)Oc2ccc(Oc3ccccc3)cc2)cc1 | inactive | Non-toxic | Non-toxic | Active | 2500 nM | solubility at 0.5 h [12]: 22 mM (≈ 11.9 mg/mL) |
| 9.9 min | Stable | 93.4% | Stable | – | CCCc1nc2ccccc2n1Cc1ccc(-c2ccccc2C(=O)NC)cc1 | inactive | Non-toxic | Non-toxic | inactive | 11200 nM | Stability [16]: Stable; half-life at 800 µM (amidase): 33.6 h; Drug uptake [17]: Not_active; Drug uptake [15]: Not_active |
| < 12.8 min | Stable | 71.9% | – | 1.05 h | CCCc1nc2ccccc2n1Cc1ccc(-c2ccccc2C(=O)OCC)cc1 | inactive | Non-toxic | Non-toxic | Active | 2100 nM | – |
| 13.1 min | Stable | 91.9% | – | – | CCCc1nc2ccccc2n1Cc1ccc(-c2ccccc2C(=O)OC(C)C)cc1 | inactive | Non-toxic | Non-toxic | Active | 2200 nM | – |

More lines, now with the values behind:

| SMILES | Retention_time [1] | Stability [2] | remaining at 72 h, 200 µM [3] | Stability (Liver carboxylesterase [7]) | half-life at 800 µM (Liver carboxylesterase [13]) | Activity (K562-IMA[r]) | Activity [4] | Activity (COS-7) | Activity (K562 [5]) | maximal sensitizing concentration (K562 [6]) | other results |
| --- | --- | --- | --- | --- | --- | --- | --- | --- | --- | --- | --- |
| CCCc1nc2ccccc2n1Cc1ccc(-c2ccccc2C(=O)Nc2ccccc2)cc1 | 12 min | Stable | 98.4% | Stable | – | inactive | Non-toxic | Non-toxic | Active | 1600 nM | Stability [8]: Stable; Drug uptake [9]: 2.7 nmol/mg; Drug uptake [10]: 1.9 nmol/mg; Drug uptake [11]: 14.5 nmol/mg |
| CCCc1nc2ccccc2n1Cc1ccc(-c2ccccc2C(=O)OC)cc1 | 12.4 min | Stable | 67.8% | – | 0.917 h | inactive | Non-toxic | Non-toxic | – | 2400 nM | Activity (K562 [14]): Active; Drug uptake [15]: 4.7 nmol/mg; Drug uptake [9]: 3.5 nmol/mg; Drug uptake [10]: 3 nmol/mg |
| CCCc1nc2ccccc2n1Cc1ccc(-c2ccccc2C(=O)NC(C)(C)C)cc1 | 11.5 min | Stable | 100% | Stable | – | inactive | Non-toxic | Non-toxic | Active | 5200 nM | Stability [8]: Stable |
| CCCCOC(=O)c1ccccc1-c1ccc(Cn2c(CCC)nc3ccccc32)cc1 | < 13.8 min | Stable | 78% | – | 1.37 h | inactive | Non-toxic | Non-toxic | Active | 1600 nM | – |
| CCCc1nc2ccccc2n1Cc1ccc(-c2ccccc2C(=O)NC(C)C)cc1 | 10.8 min | Stable | 99.1% | – | – | inactive | Non-toxic | Non-toxic | Active | 4800 nM | – |
| CCCOC(=O)c1ccccc1-c1ccc(Cn2c(CCC)nc3ccccc32)cc1 | < 13.6 min | Stable | 75.9% | – | 1.16 h | inactive | Non-toxic | Non-toxic | Active | 1800 nM | – |
| CCCNC(=O)c1ccccc1-c1ccc(Cn2c(CCC)nc3ccccc32)cc1 | < 11.1 min | Stable | 95.1% | – | – | inactive | Non-toxic | Non-toxic | Active | 4500 nM | – |
| CCCc1nc2ccccc2n1Cc1ccc(-c2ccccc2C(=O)O)cc1 | 10.8 min | – | – | – | – | – | – | – | – | – | Activity (K562 [18]): Active |
